This is an account of results in US10449269B2, “Particle conjugated prosthetic patches and methods of making and using thereof” (Yale University, priority 2016, dated 2019).

The IC50 is the point on the concentration scale where inhibition reaches its midpoint.

Data set [1] can be described thus: TGF-β1 release from NP patches in PBS (Micro BCA). The class given is physicochemical. The following applies: in vitro. How it is done: Pericardial patches were covalently modified using NP loaded with TGF-β1. TGF-β1 (4 μg) was dissolved in PBS (200 μL) and added to chloroform (2 mL) containing carboxylated poly(lactic-coglycolic acid) (PLGA) (100 mg). The mixture was then added drop-wise to 5% polyvinyl alcohol (PVA) (4 mL) and sonicated three times to form NP. The NP were dispersed in 0.2% PVA solution (200 mL) to evaporate the solvent for 2 h while stirring (40 ng TGF-β1/mg NP, […]). Patches (7 mm×5 mm) were conjugated with the NP using ethyl (dimethylaminopropyl) carbodiimide/N-hydroxysuccinimide (EDC/NHS) chemistry, as discussed above. EDC (20 μmol/mL) and NHS (10 μmol/mL) were dissolved in MES solution (0.1 M; pH 5) for the conjugation. Carboxyl groups on the NP were activated using EDC (1 mL) for 30 min and substituted with NHS by adding NHS (1 mL) for 30 min. The solution pH was raised from 5 to 8 using NaOH (1 M). Patches were then placed into the activated NP suspension and incubated at 37° C. overnight. To assess TGF-β1 release from NP patches in vitro, the patches were incubated in PBS at 37° C. The supernatant was collected at the desired time points and used to quantify TGF-β1 using a Micro BCA Protein Assay Kit (Thermo Fisher Scientific).

Data set [2] has as its target T1, nodal type I receptor ALK7 (Homo sapiens, UniProt Q8NER5).
T1 sequence (Q8NER5 21-493): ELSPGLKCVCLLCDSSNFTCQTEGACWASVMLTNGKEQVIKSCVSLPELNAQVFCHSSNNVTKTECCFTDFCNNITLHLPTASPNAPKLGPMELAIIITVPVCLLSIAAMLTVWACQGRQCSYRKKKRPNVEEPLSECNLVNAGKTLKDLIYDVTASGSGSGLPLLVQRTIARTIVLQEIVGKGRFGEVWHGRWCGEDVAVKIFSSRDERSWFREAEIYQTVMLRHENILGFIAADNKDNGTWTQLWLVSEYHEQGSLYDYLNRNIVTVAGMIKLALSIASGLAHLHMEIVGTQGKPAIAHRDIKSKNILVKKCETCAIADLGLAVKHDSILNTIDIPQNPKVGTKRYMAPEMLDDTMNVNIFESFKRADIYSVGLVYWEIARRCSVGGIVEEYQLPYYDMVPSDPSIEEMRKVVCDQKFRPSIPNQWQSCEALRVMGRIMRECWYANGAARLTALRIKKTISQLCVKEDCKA
The following applies: cited from earlier work.

Data set [3] relates to TGF-β1-induced collagen Iα1 mRNA. The following applies: cited from earlier work.
In data set [4] the test system is TGF-β1-induced fibronectin protein. Particulars: cited from earlier work.
For data set [5], the system named is TGF-β1-induced fibronectin mRNA. The following applies: cited from earlier work.
The test system of data set [6] is TGF-β1-induced PAI-1 mRNA. The following applies: cited from earlier work.

As for “TGF β1: polypeptide member of the transforming growth factor beta superfamily of cytokines”, in data set [1], the “duration of sustained release of TGF-β1” value is listed as 2-3 weeks, the “period in which cumulative release was highest (first days)” value was found to be 5 days and the “time until which release slowly decreased” value stood at 21 days.

Regarding `NC(=O)c1ccc(-c2nc(-c3ccc4c(c3)OCO4)c(-c3ccccn3)[nH]2)cc1` [SB 431542], the “inhibition of ALK7” value in data set [2] is “inhibits”. In addition, the IC50 in data set [3] is 60 nM; in data set [4], 22 nM; in data set [5] it was 62 nM; in data set [6] it was 50 nM.
